According to ChEMBL document CHEMBL3885861, “Open TG-GATES”:

Species: Rattus norvegicus
Assay: Open TG-GATES - Regimen: Single
Format: toxicity, organism-based, Sprague-Dawley
Design: regimen Single, gender Male, age 6 weeks
Details: in vivo, po, 10 mg/kg, route gavage, dose level Low; for APTT / Bas / Eos / Fbg / Hb / Ht / Lym / MCH / MCHC / MCV / Mono / Neu / PT / Plat / RBC / Ret / WBC: tissue Blood; for KIDNEY_L / KIDNEY_R / KIDNEY_TOTAL: tissue Kidney; for LIVER: tissue Liver

Q: How did the gamma-GTP (6 h, tissue Plasma) turn out when `COc1cc([C@@H]2c3cc4c(cc3[C@@H](O[C@@H]3O[C@@H]5CO[C@@H](C)O[C@H]5[C@H](O)[C@H]3O)[C@H]3COC(=O)[C@H]23)OCO4)cc(OC)c1O` [ETOPOSIDE] was run?
A: 0.8 IU/L

Q: What about the TERMINAL_BW (9 h) of the same compound?
A: 198.7 g

Q: What about the APTT (9 h) of the same compound?
A: 16.8 s

Q: And the Bas (9 h)?
A: 0%

Q: And the Eos (9 h)?
A: 0.6%

Q: And the Fbg (9 h)?
A: 184.6 mg/dL

Q: And the Hb (9 h)?
A: 13.5 g/dL

Q: And the Ht (9 h)?
A: 39.7%

Q: And the Lym (9 h)?
A: 77%

Q: And the MCH (9 h)?
A: 22.1 pg

Q: What about the MCHC (9 h) of the same compound?
A: 33.9%

Q: And the MCV (9 h)?
A: 65.1 fL

Q: What about the Mono (9 h) of the same compound?
A: 6.8%

Q: What about the Neu (9 h) of the same compound?
A: 15.8%

Q: And the PT (9 h)?
A: 11 s

Q: And the Plat (9 h)?
A: 113.8 x10_4/uL

Q: What about the RBC (9 h) of the same compound?
A: 611 x10_4/ul

Q: And the Ret (9 h)?
A: 8.6%

Q: And the WBC (9 h)?
A: 75.9 x10_2/uL

Q: And the KIDNEY_L (9 h)?
A: 0.9 g

Q: And the KIDNEY_R (9 h)?
A: 1 g

Q: And the KIDNEY_TOTAL (9 h)?
A: 1.9 g

Q: And the LIVER (9 h)?
A: 8.1 g

Q: And the ALP (9 h, tissue Plasma)?
A: 777.2 IU/L

Q: What about the ALT (9 h, tissue Plasma) of the same compound?
A: 32.8 IU/L

Q: And the AST (9 h, tissue Plasma)?
A: 64.6 IU/L

Q: What about the BUN (9 h, tissue Plasma) of the same compound?
A: 10.2 mg/dL

Q: And the CRE (9 h, tissue Plasma)?
A: 0.6 mg/dL

Q: What about the Ca (9 h, tissue Plasma) of the same compound?
A: 10.6 mg/dL

Q: And the Cl (9 h, tissue Plasma)?
A: 105.6 meq/L

Q: What about the DBIL (9 h, tissue Plasma) of the same compound?
A: 0.036 mg/dL

Q: What about the GLC (9 h, tissue Plasma) of the same compound?
A: 198.8 mg/dL

Q: What about the IP (9 h, tissue Plasma) of the same compound?
A: 10.4 mg/dL

Q: What about the K (9 h, tissue Plasma) of the same compound?
A: 4.6 meq/L

Q: And the LDH (9 h, tissue Plasma)?
A: 74.6 IU/L

Q: And the Na (9 h, tissue Plasma)?
A: 143.4 meq/L

Q: And the PL (9 h, tissue Plasma)?
A: 127.2 mg/dL

Q: What about the RALB (9 h, tissue Plasma) of the same compound?
A: 3.4 g/dL

Q: What about the TBIL (9 h, tissue Plasma) of the same compound?
A: 0.4 mg/dL

Q: What about the TC (9 h, tissue Plasma) of the same compound?
A: 70.8 mg/dL

Q: And the TG (9 h, tissue Plasma)?
A: 35.2 mg/dL

Q: What about the TP (9 h, tissue Plasma) of the same compound?
A: 5.3 g/dL

Q: And the gamma-GTP (9 h, tissue Plasma)?
A: 1.6 IU/L

Q: What about the TERMINAL_BW (24 h) of the same compound?
A: 209.8 g

Q: What about the APTT (24 h) of the same compound?
A: 15.8 s

Q: And the Bas (24 h)?
A: 0%

Q: What about the Eos (24 h) of the same compound?
A: 1%

Q: And the Fbg (24 h)?
A: 206.6 mg/dL

Q: What about the Hb (24 h) of the same compound?
A: 13.3 g/dL

Q: And the Ht (24 h)?
A: 39.5%

Q: And the Lym (24 h)?
A: 79.2%

Q: What about the MCH (24 h) of the same compound?
A: 21.7 pg

Q: And the MCHC (24 h)?
A: 33.7%

Q: And the MCV (24 h)?
A: 64.3 fL

Q: What about the Mono (24 h) of the same compound?
A: 6.6%

Q: What about the Neu (24 h) of the same compound?
A: 13.6%

Q: And the PT (24 h)?
A: 11.6 s

Q: What about the Plat (24 h) of the same compound?
A: 108.6 x10_4/uL

Q: What about the RBC (24 h) of the same compound?
A: 613.8 x10_4/ul

Q: And the Ret (24 h)?
A: 8.9%

Q: And the WBC (24 h)?
A: 89.3 x10_2/uL

Q: What about the KIDNEY_L (24 h) of the same compound?
A: 1 g

Q: What about the KIDNEY_R (24 h) of the same compound?
A: 1 g

Q: And the KIDNEY_TOTAL (24 h)?
A: 2 g

Q: And the LIVER (24 h)?
A: 10.2 g

Q: And the ALP (24 h, tissue Plasma)?
A: 1017 IU/L

Q: And the ALT (24 h, tissue Plasma)?
A: 33 IU/L

Q: And the AST (24 h, tissue Plasma)?
A: 68 IU/L

Q: What about the CRE (24 h, tissue Plasma) of the same compound?
A: 0.6 mg/dL

Q: And the Ca (24 h, tissue Plasma)?
A: 11.1 mg/dL

Q: And the Cl (24 h, tissue Plasma)?
A: 104.6 meq/L

Q: And the DBIL (24 h, tissue Plasma)?
A: 0.012 mg/dL

Q: And the GLC (24 h, tissue Plasma)?
A: 200.6 mg/dL

Q: And the IP (24 h, tissue Plasma)?
A: 8.1 mg/dL

Q: And the K (24 h, tissue Plasma)?
A: 4.6 meq/L

Q: And the LDH (24 h, tissue Plasma)?
A: 109.6 IU/L

Q: What about the Na (24 h, tissue Plasma) of the same compound?
A: 141.6 meq/L

Q: What about the PL (24 h, tissue Plasma) of the same compound?
A: 155.2 mg/dL

Q: What about the RALB (24 h, tissue Plasma) of the same compound?
A: 3.5 g/dL

Q: And the TBIL (24 h, tissue Plasma)?
A: 0.3 mg/dL

Q: What about the TC (24 h, tissue Plasma) of the same compound?
A: 87.8 mg/dL

Q: And the TG (24 h, tissue Plasma)?
A: 82.6 mg/dL

Q: And the TP (24 h, tissue Plasma)?
A: 5.5 g/dL

Q: And the gamma-GTP (24 h, tissue Plasma)?
A: 1.4 IU/L
